Measured values as given in PubChem BioAssay AID1963858 (Molecular Pharmacology Branch, DTP, NCI, 2024).

System: HOP-62 multicell spheroids with HUVEC/MSC, viability
Experiment: Anticancer human tumor HOP-62 cell line growth inhibition [KRAS2];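 note: viability read after a week of compound exposure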;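 for viability, T/C: 100% = DMSO vehicle-treated spheroids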
Details: for IC50: curve of first compound; for viability, T/C: stronger effect = lower value
In short: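 Combination screen of spheroid viability in tumor-cell co-cultures with endothelial (HUVEC) and mesenchymal stem cell stroma. Each agent was tested in half-log dilutions, topping at clinical Cmax or at 10 microM without a known Cmax.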

[1] = second compound 0.1 µM, first compound 0.0316 µM
[2] = second compound 0.316 µM, first compound 0.0316 µM
[3] = second compound 1 µM, first compound 0.0316 µM
[4] = second compound 3.16 µM, first compound 0.0316 µM
[5] = second compound 10 µM, first compound 0.0316 µM
[6] = second compound 0.1 µM, first compound 0.1 µM
[7] = second compound 0.1 µM, first compound 0.316 µM
[8] = second compound 0.1 µM, first compound 1 µM
[9] = second compound 0.1 µM, first compound 3.16 µM
[10] = second compound 0.1 µM, first compound 10 µM
[11] = second compound 0.316 µM, first compound 0.1 µM
[12] = second compound 0.316 µM, first compound 0.316 µM
[13] = second compound 0.316 µM, first compound 1 µM
[14] = second compound 0.316 µM, first compound 3.16 µM
[15] = second compound 0.316 µM, first compound 10 µM
[16] = second compound 1 µM, first compound 0.1 µM
[17] = second compound 1 µM, first compound 0.316 µM
[18] = second compound 1 µM, first compound 1 µM
[19] = second compound 1 µM, first compound 3.16 µM
[20] = second compound 1 µM, first compound 10 µM
[21] = second compound 3.16 µM, first compound 0.1 µM
[22] = second compound 3.16 µM, first compound 0.316 µM
[23] = second compound 3.16 µM, first compound 1 µM
[24] = second compound 3.16 µM, first compound 3.16 µM
[25] = second compound 3.16 µM, first compound 10 µM
[26] = second compound 10 µM, first compound 0.1 µM
[27] = second compound 10 µM, first compound 0.316 µM
[28] = second compound 10 µM, first compound 1 µM
[29] = second compound 10 µM, first compound 3.16 µM
[30] = second compound 10 µM, first compound 10 µM

`CC(=O)Nc1cccc(-n2c(=O)n(C3CC3)c(=O)c3c(Nc4ccc(I)cc4F)n(C)c(=O)c(C)c32)c1` + CC1OCC2(CCN(c3cnc(Sc4ccnc(N)c4Cl)c(N)n3)CC2)C1N was tested, and the IC50 (second compound 0.1 µM) was 0.00214 µM, the IC50 (second compound 0.316 µM) was 0.000877 µM and the IC50 (second compound 1 µM) was 0.000167 µM. The IC50 (second compound 3.16 µM) was under 0.0001 µM, the IC50 (second compound 10 µM) was under 0.0001 µM and the viability, T/C (second compound 0.1 µM, first compound 0.0001 µM) was 93.8%. For the same compound, the viability, T/C (second compound 0.1 µM, first compound 0.000316 µM) was 86.2%, the viability, T/C (second compound 0.1 µM, first compound 0.001 µM) was 67.9% and the viability, T/C (second compound 0.1 µM, first compound 0.00316 µM) was 41%. The viability, T/C (second compound 0.1 µM, first compound 0.01 µM) was 29.1%, the viability, T/C [1] was 28.5% and the viability, T/C (second compound 0.316 µM, first compound 0.0001 µM) was 79.8%. For the same compound, the viability, T/C (second compound 0.316 µM, first compound 0.000316 µM) was 64.2%, the viability, T/C (second compound 0.316 µM, first compound 0.001 µM) was 49.8% and the viability, T/C (second compound 0.316 µM, first compound 0.00316 µM) was 33.8%. For the same compound, the viability, T/C (second compound 0.316 µM, first compound 0.01 µM) was 22.9%, the viability, T/C [2] was 25.8% and the viability, T/C (second compound 1 µM, first compound 0.0001 µM) was 55.2%. The viability, T/C (second compound 1 µM, first compound 0.000316 µM) was 42.8%, the viability, T/C (second compound 1 µM, first compound 0.001 µM) was 33.5% and the viability, T/C (second compound 1 µM, first compound 0.00316 µM) was 21.5%. For the same compound, the viability, T/C (second compound 1 µM, first compound 0.01 µM) was 20.2%, the viability, T/C [3] was 21.5% and the viability, T/C (second compound 3.16 µM, first compound 0.0001 µM) was 25.8%. It also gave a viability, T/C (second compound 3.16 µM, first compound 0.000316 µM) of 16.9%, a viability, T/C (second compound 3.16 µM, first compound 0.001 µM) of 14.4% and a viability, T/C (second compound 3.16 µM, first compound 0.00316 µM) of 17.7%. For the same compound, the viability, T/C (second compound 3.16 µM, first compound 0.01 µM) was 15.4%, the viability, T/C [4] was 15.7% and the viability, T/C (second compound 10 µM, first compound 0.0001 µM) was 20.2%. The viability, T/C (second compound 10 µM, first compound 0.000316 µM) was 14.3%, the viability, T/C (second compound 10 µM, first compound 0.001 µM) was 15.3% and the viability, T/C (second compound 10 µM, first compound 0.00316 µM) was 14.2%. For the same compound, the viability, T/C (second compound 10 µM, first compound 0.01 µM) was 12.4% and the viability, T/C [5] was 13.7%.

`COc1cc(Nc2ncc3c(n2)-c2ccc(Cl)cc2C(c2c(F)cccc2OC)=NC3)ccc1C(=O)O` + CC1OCC2(CCN(c3cnc(Sc4ccnc(N)c4Cl)c(N)n3)CC2)C1N gave an IC50 (second compound 0.1 µM) of 0.183 µM, an IC50 (second compound 0.316 µM) of 0.0728 µM and an IC50 (second compound 1 µM) of under 0.0316 µM. It also gave an IC50 (second compound 3.16 µM) of under 0.0316 µM, an IC50 (second compound 10 µM) of under 0.0316 µM and a viability, T/C [1] of 61.5%. It also gave a viability, T/C [6] of 53.9%, a viability, T/C [7] of 45.7% and a viability, T/C [8] of 39%. The viability, T/C [9] was 26.9%, the viability, T/C [10] was 20.1% and the viability, T/C [2] was 56%. For the same compound, the viability, T/C [11] was 47.8%, the viability, T/C [12] was 38.5% and the viability, T/C [13] was 31.3%. The viability, T/C [14] was 22%, the viability, T/C [15] was 16.3% and the viability, T/C [3] was 34.6%. The viability, T/C [16] was 29.7%, the viability, T/C [17] was 27.1% and the viability, T/C [18] was 26.1%. The viability, T/C [19] was 21.1%, the viability, T/C [20] was 15.4% and the viability, T/C [4] was 21.9%. For the same compound, the viability, T/C [21] was 18.9%, the viability, T/C [22] was 22.2% and the viability, T/C [23] was 21.7%. For the same compound, the viability, T/C [24] was 14.7%, the viability, T/C [25] was 11.4% and the viability, T/C [5] was 22.7%. For the same compound, the viability, T/C [26] was 17.1%, the viability, T/C [27] was 18.4% and the viability, T/C [28] was 17.4%. For the same compound, the viability, T/C [29] was 16.2% and the viability, T/C [30] was 10.7%.

`COc1cc2nccc(Oc3ccc(NC(=O)C4(C(=O)Nc5ccc(F)cc5)CC4)cc3)c2cc1OC` + CC1OCC2(CCN(c3cnc(Sc4ccnc(N)c4Cl)c(N)n3)CC2)C1N gave an IC50 (second compound 0.1 µM) of 7.77 µM, an IC50 (second compound 0.316 µM) of 2.26 µM and an IC50 (second compound 1 µM) of 0.0316 µM. The IC50 (second compound 3.16 µM) was under 0.0316 µM, the IC50 (second compound 10 µM) was under 0.0316 µM and the viability, T/C [1] was 88.3%. It also gave a viability, T/C [6] of 83%, a viability, T/C [7] of 88% and a viability, T/C [8] of 91.1%. It also gave a viability, T/C [9] of 77.8%, a viability, T/C [10] of 42.2% and a viability, T/C [2] of 81.8%. The viability, T/C [11] was 67.3%, the viability, T/C [12] was 73.4% and the viability, T/C [13] was 84.1%. The viability, T/C [14] was 38.9%, the viability, T/C [15] was 33.5% and the viability, T/C [3] was 43.5%. It also gave a viability, T/C [16] of 50.5%, a viability, T/C [17] of 49.4% and a viability, T/C [18] of 52.7%. The viability, T/C [19] was 19%, the viability, T/C [20] was 27.5% and the viability, T/C [4] was 33.2%. The viability, T/C [21] was 24.1%, the viability, T/C [22] was 16.4% and the viability, T/C [23] was 17%. The viability, T/C [24] was 15.9%, the viability, T/C [25] was 9.51% and the viability, T/C [5] was 30.8%. For the same compound, the viability, T/C [26] was 19.3%, the viability, T/C [27] was 20.4% and the viability, T/C [28] was 16.8%. It also gave a viability, T/C [29] of 11.6% and a viability, T/C [30] of 16.7%.
